Measurements taken from patent US11292803B2, “Bioreducible N-oxide-based probes for imaging of hypoxia” (THE BOARD OF TRUSTEES OF THE UNIVERSITY OF ILLINOIS, priority 2018, dated 2022).

Tests used:
4T1 tumour allografts = assay: In vivo PA imaging of hypoxic tumour model; parameters: species or system BALB/c mice; conditions: tail vein injection 0.3 mg/kg; 770 nm
Protocol: Next, attention was turned to the application of HyP-1 for hypoxia detection using PA imaging. HyP-1 (50 μL, 0.3 mg/kg) was administered to tumour-bearing mice intravenously via tail vein injection, and PA images of both the tumour-bearing and control flanks were acquired at 1, 3 and 5 hours following injection. […] The 3D-reconstructions of the PA images enabled visualization of specific areas within the tumour where signal was highest, a significant improvement compared to the minimally resolved signal obtained using fluorescence imaging (FIG. 6b). It was hypothesized that these areas of high intensity correlate with the highest concentrations of red-HyP-1, and therefore with regions of most severe hypoxia.
All in vivo imaging experiments were performed with the approval of the Institutional Animal Care and Use Committee of the University of Illinois at Urbana-Champaign, following the principles outlined by the American Physiological Society on research animal use. […]
Prior to imaging, hair was removed from the lower body half by shaving and treating with a topical hair removal cream. […] Data was analysed using OsiriX software. […] ROIs of equal area were drawn to include all visible signal in the image, and mean PA signal in each ROI was recorded. Change in PA signal was calculated by subtracting signal from images taken prior to injection from those at given time points.

[1] = test system: CYP450-rich rat liver microsomes
Protocol: FIG. 4. […] (a) Representative PA image (770 nm) of reaction mixtures incubated under normoxic or hypoxic conditions for 2 h, then quenched with an equal volume of acetonitrile. Dashed lines indicate positioning of FEP tubes. (b) Change in PA signal (770 nm) produced after 2 h incubation of HyP-1 (10 μM) with rat liver microsomes (RLM) (200 μg/mL) and NADPH (50 μM) in normoxic and hypoxic conditions (n=3). (c) Ratiometric fluorescence turn-on after 2 h incubation of HyP-1 (2 μM) with RLM ([…]) and NADPH (50 μM) in normoxic or hypoxic conditions (n=3). (d) Normalized fluorescent turn-on after 1 h hypoxic incubation of HyP-1 (2 μM) with RLM (100 μg/mL) and NADPH (50 μM) under various conditions. Statistical significance represents a comparison to the hypoxic control (n=6). Results with error bars are represented as mean±SD. **p<0.01, ***p<0.001, ****p<0.0001.
The responsiveness of HyP-1 to hypoxia was first evaluated in vitro via fluorescence by incubating HyP-1 with CYP450-rich rat liver microsomes under atmospheric (normoxic) and oxygen-deprived (hypoxic) conditions. […] The PA response of HyP-1 under identical conditions was evaluated by quenching the reaction mixtures with an equal volume of acetonitrile and transferring the solutions into fluorinated ethylene propylene (FEP) tubes, which were inserted into the centre of a 2 cm thick agarose-based tissue-mimicking phantom.
For hypoxic assays only, cuvettes were sealed with septa, then evacuated and filled with N2 (×3) prior to use. Potassium phosphate buffer (0.1 M, pH 7.4) and NADPH (0.5 mM) were degassed with N2 for 30 minutes. For all assays, phosphate buffer (889 μL) rat liver microsomes (200 μg/mL) and HyP-1 (1 μL, 2 mM in DMSO) were added to the cuvette and pre-incubated at 37° C. for 5 minutes. NADPH (100 μL) was added and incubation continued with fluorescence spectra acquisition occurring at the indicated time points. Spectra were acquired according to the following parameters: λex=672, emission range=685-800 nm and λex=750, emission range=760-900 nm. For BIPY and DPI experiments, the compounds were added from stock solutions (1 M BIPY in DMSO and 50 mM DPI in deionized water) following the 5 minute preincubation, and the buffer volume was adjusted such that the total volume in the cuvette was equal to 1 mL. Deactivated microsomes were prepared by heating in a 45° C. water bath for 30 minutes.

[2] = Photophysical characterization (absorbance, emission, extinction coefficient, quantum yield); format: physicochemical; conditions: for ΦF / ε / λabs / λem: measured in CHCl3 (Table 1)
Protocol: Having established an effective synthetic route, attention was turned to the photophysical characterization of HyP-1 and red-HyP-1 (Table 1). HyP-1 has an absorbance maximum at 670 nm and corresponding emission maximum at 697 nm (FIG. 3a). The extinction coefficient (ε) and quantum yield (ΦF) were measured to be 1.5×10^4 cm^−1 M^−1 and 0.33 respectively. Red-HyP-1, on the other hand, has absorbance and emission maxima at 760 nm and 798 nm, respectively.
4-Aminoacetophenone was purchased from AK Scientific. Ethyl iodide, DIPEA, K2CO3, KOH, Na2SO4 and NH4OAc were purchased from Oakwood Chemicals. Benzaldehyde, BF3×OEt2, BIPY, DPI, DMSO, m-CPBA, nitroreductase and rat liver microsomes were purchased from Sigma Aldrich. Nitromethane was purchased from Alfa Aesar. Anaero-Indicators, AnaeroPacka anaerobic gas generators, acetonitrile, n-BuOH, CH2Cl2, EtOAc and Hexanes were purchased from Fisher Scientific. CDCl3 was purchased from Cambridge Isotopes Laboratory. Agarose LE was purchased from Gold Biotechnology. NADPH was purchased from EMD Millipore. All chemicals were used as purchased without further purification. Fluorinated ethylene propylene (FEP) tubing (wall thickness 0.01″, inner diameters 0.08″ and 0.12″) were purchased from McMaster-Carr. Thin-layer chromatography (TLC) was performed using glass-backed TLC plates coated with silica gel containing an UV254 fluorescent indicator (Macherey-Nagel). Flash chromatography was performed with 230-400 mesh silica gel P60 (SiliCycle Inc). UV-visible spectra were recorded on a Cary 60 spectrometer. Fluorescence spectra were recorded on a QuantaMaster-400 scanning spectrofluorometer using micro fluorescence quartz cuvettes (Science Outlet). NMR spectra were taken using Bruker or Varian 500 MHz spectrometers at 25° C. High-resolution mass spectra were acquired using Waters Q-Tof Ultima ESI and Waters Synapt G2-Si ESI/LC-MS spectrometers. Cellular imaging was performed using an EVOS FL cell imaging system. In vivo Fluorescence imaging was performed using an IVIS Spectrum CT live-animal imaging system (Perkin-Elmer, USA). PA imaging was performed using an Endra Nexus 128 photoacoustic tomography system (Ann Arbor, Mich., USA).

[3] = as above; format: physicochemical; conditions: Table 2

emission maximum ([1]; authentic solution, as RLM reaction mixture (aqueous buffer)) | SMILES | PA signal increase in control flank (4T1 tumour allografts) | mean PA signal increase in tumour tissue (4T1 tumour allografts) | conversion by heat-inactivated rat liver microsomes [1] | absorbance maximum [2] | decrease in quantum yield on conversion of HyP-1 to red-HyP-1 [2] | emission maximum [2] | extinction coefficient (ε) [2] | increase in extinction coefficient on conversion of HyP-1 to red-HyP-1 [2] | quantum yield (ΦF) [2] | shift in absorbance on conversion of HyP-1 to red-HyP-1 [2] | ΦF [2] | ε [2] | λabs [2] | λem [2] | Φ [3] | ε [3] | λabs [3]
 | CC[N+]([O-])(CC)c1ccc(-c2cc(-c3ccccc3)c3n2[B-](F)(F)[N+]2=C(c4ccc(OC)cc4)C=C(c4ccccc4)C2=N3)cc1 [HyP-1, 4-(5,5-difluoro-7-(4-methoxyphenyl)-1,9-diphenyl-5H-5λ^4,6λ^4-dipyrrolo[1,2-c:2′,1′-f][1,3,5,2]triazaborinin-3-yl)-N,N-diethylaniline oxide] | no increase | 20.5 a.u. | converted to red-HyP-1 | 670 nm | 2.2 fold | 697 nm | 15000 cm⁻¹ M⁻¹ | 3.6 fold | 0.33 | 90 nm | 0.33 | 1.4 × 10^4 M^−1 cm^1 | 670 nm | 697 nm | 0.33 | 1.5 × 10^4 M^−1 · cm^1 | 670 nm
785 nm | CCN(CC)c1ccc(-c2cc(-c3ccccc3)c3n2[B-](F)(F)[N+]2=C(c4ccc(OC)cc4)C=C(c4ccccc4)C2=N3)cc1 [Red-HyP-1, 4-(5,5-difluoro-7-(4-methoxyphenyl)-1,9-diphenyl-5H-5λ^4,6λ^4-dipyrrolo[1,2-c:2′,1′-f][1,3,5,2]triazaborinin-3-yl)-N,N-diethylaniline] |  |  |  | 760 nm |  | 798 nm | 54000 cm⁻¹ M⁻¹ |  | 0.15 |  | 0.15 | 5.4 × 10^4 M^−1 cm^1 | 760 nm | 798 nm | 0.11 | 5.4 × 10^4 M^−1 · cm^1 | 760 nm
